Experimental findings from patent US8455398B2, “Amide compounds, preparation methods and uses thereof” (Sinochem Corporation, priority 2008, dated 2013) are described below.

Each structure is given as a SMILES string.

In assay [1] the test system is cucumber anthracnose. In words: Fungicidal activity in vivo, cucumber anthracnose. The conditions noted are these: plants sprayed, inoculated after 24 hours. As for the experimental part: (§1) Determine the fungicidal activities of the compounds of the present invention against plant diseases, carried by following procedure:
(§2) Determination of Fungicidal Activity In Vivo:
(§3) Compounds were dissolved in acetone, and diluted to required concentration with water containing 0.1% of tween 80. Plants were sprayed by a sprayer. After 24 hours, plants were innoculated and then transferred into a dew chamber for infection. After the infection period normally one week), the plants were scored for disease control.

The test system of assay [2] is diamond backmoth (Plutella xylostella). In words: Insecticidal activity, spray test, diamond backmoth. In kind it is in vivo. The conditions noted are these: 600 ppm, mortality after two to three days. Here is the method: (§4) Determination of insecticidal and acaricidal activity of selected compounds were carried out by following procedure:
(§5) Compounds were dissolved in mixed solvent (acetone:methanol=1:1), and diluted to required concentration with water containing 0.1% of tween 80.
(§6) The armyworm (Leucania separata), the second stage Juvenile of diamond backmoth (Plutella xylostella), lesser army worm (Spodoptera exiqua), green peach aphids (Myzus persicae) and mite (Tetranychus cinnabarinus) were used in biological test. The test was employed either spraying by airbrush. A test solution (0.5 ml) was sprayed at the pressure of 10 psi (0.7 kg/cm^2). Percent mortality was determined after two to three days.

For assay [3], the system named is lesser army worm (Spodoptera exiqua). In words: Insecticidal activity, spray test, lesser armyworm. Format: in vivo. The note with it: mortality after two to three days. As for the experimental part:
as §4, §5, §6

The subject of assay [4] is plant diseases. In words: Fungicidal activity in vivo against plant diseases (overall). The note with it: 400 ppm. As for the experimental part:
as §1, §2, §3

On to `Cc1cc(C(=O)NCCNc2ncc(C#N)cc2Cl)ccc1NC(=O)c1cc(Br)nn1-c1ncccc1Cl` [83 in Table 96], for which, in assay [1] (400 ppm), the “control of cucumber anthracnose” value is recorded as 100%.

Turning to `Cc1cc(Cl)cc(C(=O)NCCNc2ccc(C(F)(F)F)cc2Cl)c1NC(=O)c1cc(Br)nn1-c1ncccc1Cl` [Table 173-83], in assay [2], the “control of diamond backmoth” value is given as 100%. The “control of lesser armyworm” value in assay [3] (600 ppm) was 100%.

`Cc1cc(Cl)cc(C(=O)NCCNc2ncccc2Cl)c1NC(=O)c1cc(Br)nn1-c1ncccc1Cl` [Table 179-83]: the “control of diamond backmoth” value in assay [2] was found to be 100%. Besides, in assay [3] (600 ppm), the “control of lesser armyworm” value amounted to 100%.

For `Cc1cc(Cl)cc(C(=O)NCCCNc2ncccc2Cl)c1NC(=O)c1cc(Br)nn1-c1ncccc1Cl` [Table 179-199], the “control of diamond backmoth” value in assay [2] is on record as 100%. For the same compound, the “control of lesser armyworm” value in assay [3] (600 ppm) was found to be 100%.

Consider `Cc1cc(Cl)cc(C(=O)N2CCN(c3ncccc3Cl)CC2)c1NC(=O)c1cc(Br)nn1-c1ncccc1Cl` [Table 179-303], for which, in assay [2], the “control of diamond backmoth” value worked out at 100%. Also, the “control of lesser armyworm” value in assay [3] (600 ppm) came out at 100%.

With `Cc1cc(Cl)cc(C(=O)NC(C)CNc2ncccc2Cl)c1NC(=O)c1cc(Br)nn1-c1ncccc1Cl` (centres unmarked) [Table 179-304], the “control of diamond backmoth” value in assay [2] amounted to 100%. Also, the “control of lesser armyworm” value in assay [3] (1 ppm), in assay [3] (10 ppm) and in assay [3] (600 ppm) was 100% in each case. For the same compound, the “control of cucumber anthracnose” value in assay [1] (50 ppm) and in assay [1] (400 ppm) was 100% in each case.

In the case of `Cc1cc(Cl)cc(C(=O)NCCNc2ncc(C(F)(F)F)cc2Cl)c1NC(=O)c1cc(Br)nn1-c1ncccc1Cl` [Table 181-83], the “control of diamond backmoth” value in assay [2] came to 100%. Besides, the “control of lesser armyworm” value in assay [3] (0.1 ppm) is “more than 60%”; in assay [3] (1 ppm), 100%; in assay [3] (10 ppm), 100%; in assay [3] (600 ppm) it was 100%. Moreover, the “control of cucumber anthracnose” value in assay [1] (50 ppm) and in assay [1] (400 ppm) was 100% in each case.

As for `Cc1cc(Cl)cc(C(=O)NCCCNc2ncc(C(F)(F)F)cc2Cl)c1NC(=O)c1cc(Br)nn1-c1ncccc1Cl` [Table 181-199], in assay [2], the “control of diamond backmoth” value was 100%. Moreover, the “control of lesser armyworm” value in assay [3] (1 ppm), in assay [3] (10 ppm) and in assay [3] (600 ppm) was 100% throughout.

On to `Cc1cc(Cl)cc(C(=O)N2CCN(c3ncc(C(F)(F)F)cc3Cl)CC2)c1NC(=O)c1cc(Br)nn1-c1ncccc1Cl` [Table 181-303], for which the “control of diamond backmoth” value in assay [2] is listed as 100%. For the same compound, in assay [3] (600 ppm), the “control of lesser armyworm” value was found to be 100%.

Regarding `Cc1cc(Cl)cc(C(=O)NC(C)CNc2ncc(C(F)(F)F)cc2Cl)c1NC(=O)c1cc(Br)nn1-c1ncccc1Cl` (centres unmarked) [Table 181-304], the “control of diamond backmoth” value in assay [2] stood at 100%. Moreover, the “control of lesser armyworm” value in assay [3] (600 ppm) worked out at 100%.

Consider `Cc1cc(Cl)cc(C(=O)NCCNc2ncc(C#N)cc2Cl)c1NC(=O)c1cc(Br)nn1-c1ncccc1Cl` [Table 182-83], for which the “control of diamond backmoth” value in assay [2] worked out at 100%. The “control of lesser armyworm” value in assay [3] (600 ppm) amounted to 100%.

Regarding `Cc1cc(Cl)cc(C(=O)NCCCNc2ncc(C#N)cc2Cl)c1NC(=O)c1cc(Br)nn1-c1ncccc1Cl` [Table 182-199], the “control of diamond backmoth” value in assay [2] came to 100%. Besides, the “control of lesser armyworm” value in assay [3] (600 ppm) is recorded as 100%.

On to `Cc1cc(Cl)cc(C(=O)NCCNc2ncc(Cl)cc2Cl)c1NC(=O)c1cc(Br)nn1-c1ncccc1Cl` [Table 211-83], for which, in assay [2], the “control of diamond backmoth” value was 100%. Further, in assay [3] (600 ppm), the “control of lesser armyworm” value is recorded as 100%. Also, in assay [1] (400 ppm), the “control of cucumber anthracnose” value turned out to be 100%.

In the case of `Cc1cc(Cl)cc(C(=O)NCCCNc2ncc(Cl)cc2Cl)c1NC(=O)c1cc(Br)nn1-c1ncccc1Cl` [Table 211-199], the “control of diamond backmoth” value in assay [2] is 100%. For the same compound, the “control of lesser armyworm” value in assay [3] (10 ppm) and in assay [3] (600 ppm) was 100% in each case.

In the case of `CNC(=O)c1cc(Cl)cc(C)c1NC(=O)c1cc(Br)nn1-c1ncccc1Cl` [chlorantraniliprole], in assay [4], the fungicidal activity entry is listed as “no fungicidal activity”.
